What follows are compounds tested on IL-1β production in PMA-differentiated THP-1 cells (assay: IL-1β production in PMA-differentiated THP-1 cells stimulated with gramicidin (hTHP-1 assay, 2% fetal bovine serum; Procedures 1-3)). Conditions: Homo sapiens, THP-1, hTHP-1 assay containing 2% fetal bovine serum, Table B2, class symbols; read-out: IC50.
Type: cell-based, human
In short: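 IL-1β released into supernatants was read by HTRF after 2 h gramicidin (5 μM) challenge. Before challenge, compounds (3-fold dilutions, top 100 μM, 0.37% DMSO) were given 1 h on THP-1 cells differentiated with PMA (20 ng/ml, 16-18 h) and held in 2% FBS medium.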

Row | SMILES | IC50 [µM]
1 | COc1cc(CN(C)C)ccc1S(N)(=O)=NC(=O)Nc1c2c(cc3c1CCC3)CCC2 (single isomer, unassigned) [Example 606, (R) or (S)-4-((dimethylamino)methyl)-N′-((1,2,3,5,6,7-hexahydro-s-indacen-4-yl)carbamoyl)-2-methoxybenzene-sulfonimidamide] | 0.2 to 1
2 | CN(Cc1ccc(S(N)(=O)=NC(=O)Nc2c3c(cc4c2CCC4)CCC3)cc1)CC(F)F (single isomer, unassigned) [Example 610, (R) or (S)-4-(((2,2-difluoroethyl) (methyl)amino)methyl)-N′-((1,2,3,5,6,7-hexahydro-s-indacen-4-yl)carbamoyl) benzenesulfonimidamide] | 1 to 5
3 | CC(C)N(C)c1ccc(S(N)(=O)=NC(=O)Nc2c3c(cc4c2CCC4)CCC3)cc1 (single isomer, unassigned) [Example 615, (R) or (S)-N′-((1,2,3,5,6,7-hexahydro-s-indacen-4-yl)carbamoyl)-4-(isopropyl(methyl)amino) benzenesulfonimidamide] | 5 to 30
4 | NS(=O)(=NC(=O)Nc1c2c(cc3c1CCC3)CCC2)c1ccc(CN2CCC(F)(F)C2)cc1 (single isomer, unassigned) [Example 620, (R) or (S)-4-((3,3-difluoropymolidin-1-yl)methyl)-N′-((1,2,3,5,6,7-hexahydro-s-indacen-4-yl)carbamoyl) benzenesulfonimidamide] | 1 to 5
5 | CC(O)(CO)c1ncc(S(N)(=O)=NC(=O)Nc2c3c(cc4c2CCC4)CCC3)s1 (single isomer, unassigned) [Example 626] | 0.008 to 0.04

Same assay, conditions: Homo sapiens, THP-1, hTHP-1 assay containing 2% fetal bovine serum, Table B2, given as bound; read-out: IC50

Row | SMILES | IC50 [µM]
6 | COc1cc(CN(C)C)ccc1S(N)(=O)=NC(=O)Nc1c2c(cc3c1CCC3)CCC2 (single isomer, unassigned) [Example 607, (S) or (R)-4-((dimethylamino)methyl)-N′-((1,2,3,5,6,7-hexahydro-s-indacen-4-yl)carbamoyl)-2-methoxybenzene-sulfonimidamide] | > 30
7 | CN(Cc1ccc(S(N)(=O)=NC(=O)Nc2c3c(cc4c2CCC4)CCC3)cc1)CC(F)(F)F (single isomer, unassigned) [Example 608, (R) or (R)-N′-((1,2,3,5,6,7-hexahydro-s-indacen-4-yl)carbamoyl)-4-((methyl(2,2,2-trifluoroethyl)amino)methyl) benzenesulfonimidamide] | > 30
8 | CN(Cc1ccc(S(N)(=O)=NC(=O)Nc2c3c(cc4c2CCC4)CCC3)cc1)CC(F)F (single isomer, unassigned) [Example 611, (S) or (R)-4-(((2,2-difluoroethyl) (methyl)amino)methyl)-N′-((1,2,3,5,6,7-hexahydro-s-indacen-4-yl)carbamoyl) benzenesulfonimidamide] | > 30
9 | NS(=O)(=NC(=O)Nc1c2c(cc3c1CCC3)CCC2)c1ccccc1 (single isomer, unassigned) [Example 612, (R) or (S)-N′-((1,2,3,5,6,7-hexahydro-s-indacen-4-yl)carbamoyl) benzenesulfonimidamide] | > 30
10 | CC(C)N(C)c1ccc(S(N)(=O)=NC(=O)Nc2c3c(cc4c2CCC4)CCC3)cc1 (single isomer, unassigned) [Example 614, (S) or (R)-N′-((1,2,3,5,6,7-hexahydro-s-indacen-4-yl)carbamoyl)-4-(isopropyl(methyl)amino) benzenesulfonimidamide] | > 30
11 | CC(C)Cc1ccc(S(N)(=O)=NC(=O)Nc2c3c(cc4c2CCC4)CCC3)cc1 (single isomer, unassigned) [Example 618, (S) or (R)-N′-((1,2,3,5,6,7-hexahydro-s-indacen-4-yl)carbamoyl)-4-isobutylbenzene-sulfonimidamide] | > 30
12 | NS(=O)(=NC(=O)Nc1c2c(cc3c1CCC3)CCC2)c1ccc(CN2CCC(F)(F)C2)cc1 (single isomer, unassigned) [Example 621, (S) or (R)-4-((3,3-difluoropymolidin-1-yl)methyl)-N′-((1,2,3,5,6,7-hexahydro-s-indacen-4-yl)carbamoyl) benzenesulfonimidamide] | > 30
13 | NS(=O)(=NC(=O)Nc1c2c(cc3c1CCC3)CCC2)c1ccc(C2CCNC2)cc1F (single isomer, unassigned) [Example 622, (R,S) or (S,S)-2-fluoro-N′-((1,2,3,5,6,7-hexahydro-s-indacen-4-yl)carbamoyl)-4-pyrrolidin-3-yl) benzenesulfonimidamide] | > 30

Same assay, conditions: hTHP-1 assay containing 2% fetal bovine serum, Table B2, class symbols; read-out: IC50

Row | SMILES | IC50 [µM]
14 | CN(C)Cc1ccc([S@](N)(=O)=NC(=O)Nc2c3c(cc4c2CCC4)CCC3)cc1F (single isomer, unassigned) [Example 605, (R) or (S)-4-((dimethylamino)methyl)-3-fluoro-N′-((1,2,3,5,6,7-hexahydro-s-indacen-4-yl)carbamoyl) benzenesulfonimidamide] | 0.2 to 1
15 | CN(C)Cc1ccc(S(N)(=O)=NC(=O)Nc2c3c(cc4c2CCC4)CCC3)cn1 (single isomer, unassigned) [Example 616, (S) or (R)-6-((dimethylamino)methyl)-N′-((1,2,3,5,6,7-hexahydro-s-indacen-4-yl)carbamoyl) pyridine-3-sulfonimidamide] | 5 to 30
16 | CN(C)Cc1ccc(S(N)(=O)=NC(=O)Nc2c3c(cc4c2CCC4)CCC3)cn1 (single isomer, unassigned) [Example 617, (R) or (S)-6-((dimethylamino)methyl)-N′-((1,2,3,5,6,7-hexahydro-s-indacen-4-yl)carbamoyl) pyridine-3-sulfonimidamide] | 0.2 to 1
17 | NS(=O)(=NC(=O)Nc1c2c(cc3c1CCC3)CCC2)c1ccc(C2CCNC2)cc1F (single isomer, unassigned) [Example 624, (R,R) or (S,R)-2-fluoro-N′-((1,2,3,5,6,7-hexahydro-s-indacen-4-yl)carbamoyl)-4-pyrrolidin-3-yl) benzenesulfonimidamide] | 0.2 to 1
18 | NS(=O)(=NC(=O)Nc1c2c(cc3c1CCC3)CCC2)c1ccc(C2CCNC2)cc1F (single isomer, unassigned) [Example 625, (S,R) or (R,R)-2-fluoro-N′-((1,2,3,5,6,7-hexahydro-s-indacen-4-yl)carbamoyl)-4-pyrrolidin-3-yl) benzenesulfonimidamide] | 0.2 to 1
19 | CC(O)(CO)c1ncc(S(N)(=O)=NC(=O)Nc2c3c(cc4c2CCC4)CCC3)s1 (single isomer, unassigned) [Example 627, (R,S) or (S,S)-1,2-dihydroxypropan-2-yl)-N′-((l,2,3,5,6,7-hexahydro-s-indacen-4-yl) carbamoyl) thiazole-5-sulfonimidamide] | 0.2 to 1
20 | CC(O)(CO)c1ncc(S(N)(=O)=NC(=O)Nc2c3c(cc4c2CCC4)CCC3)s1 (single isomer, unassigned) [Example 628, (S,S) or (R,S)-1,2-dihydroxypropan-2-yl)-N′-((l,2,3,5,6,7-hexahydro-s-indacen-4-yl) carbamoyl) thiazole-5-sulfonimidamide] | 0.2 to 1
21 | CC(O)(CO)c1cc(F)c(S(N)(=O)=NC(=O)Nc2c3c(c(C#N)c4c2CCC4)CCC3)s1 (single isomer, unassigned) [Example 629, (S,R) or (R,R)-N′-((8-cyano-1,2,3,5,6,7-hexahydro-s-indacen-4-yl)carbamoyl)-5-(1,2-dihydroxypropan-2-yl)-3-fluorothiophene-2-sulfonimidamide] | 0.04 to 0.2
22 | CC(O)(CO)c1cc(F)c(S(N)(=O)=NC(=O)Nc2c3c(c(C#N)c4c2CCC4)CCC3)s1 (single isomer, unassigned) [Example 630, (R,R) or (S,R)-N′-((8-cyano-1,2,3,5,6,7-hexahydro-s-indacen-4-yl)carbamoyl)-5-(1,2-dihydroxypropan-2-yl)-3-fluorothiophene-2-sulfonimidamide] | 0.008 to 0.04
23 | CC(O)(CO)c1cc(F)c(S(N)(=O)=NC(=O)Nc2c3c(c(C#N)c4c2CCC4)CCC3)s1 (single isomer, unassigned) [Example 632] | 5 to 30
24 | CC(O)(CO)c1cc(F)c(S(N)(=O)=NC(=O)Nc2c3c(c(C#N)c4c2CCC4)CCC3)s1 (single isomer, unassigned) [Example 633] | 5 to 30

Same assay, conditions: hTHP-1 assay containing 2% fetal bovine serum, Table B2, given as bound; read-out: IC50

Row | SMILES | IC50 [µM]
25 | CN(C)Cc1ccc([S@@](N)(=O)=NC(=O)Nc2c3c(cc4c2CCC4)CCC3)cc1F (single isomer, unassigned) [Example 604, (S) or (R)-4-((dimethylamino)methyl)-3-fluoro-N′-((1,2,3,5,6,7-hexahydro-s-indacen-4-yl)carbamoyl) benzenesulfonimidamide] | > 30
26 | CN(Cc1ccc(S(N)(=O)=NC(=O)Nc2c3c(cc4c2CCC4)CCC3)cc1)CC(F)(F)F (single isomer, unassigned) [Example 609, (S) or (R)-N′-((1,2,3,5,6,7-hexahydro-s-indacen-4-yl)carbamoyl)-4-((methyl(2,2,2-trifluoroethyl)amino)methyl) benzenesulfonimidamide] | > 30
27 | NS(=O)(=NC(=O)Nc1c2c(cc3c1CCC3)CCC2)c1ccccc1 (single isomer, unassigned) [Example 613, (S) or (R)-N′-((1,2,3,5,6,7-hexahydro-s-indacen-4-yl)carbamoyl) benzenesulfonimidamide] | > 30
28 | CC(C)Cc1ccc(S(N)(=O)=NC(=O)Nc2c3c(cc4c2CCC4)CCC3)cc1 (single isomer, unassigned) [Example 619, (R) or (S)-N′-((1,2,3,5,6,7-hexahydro-s-indacen-4-yl)carbamoyl)-4-isobutylbenzene-sulfonimidamide] | > 30
29 | NS(=O)(=NC(=O)Nc1c2c(cc3c1CCC3)CCC2)c1ccc(C2CCNC2)cc1F (single isomer, unassigned) [Example 623, (S,S) or (R,S)-2-fluoro-N′-((1,2,3,5,6,7-hexahydro-s-indacen-4-yl)carbamoyl)-4-(- pyrrolidin-3-yl) benzenesulfonimidamide] | > 30

Source: US20230051589A1, “COMPOUNDS AND COMPOSITIONS FOR TREATING CONDITIONS ASSOCIATED WITH NLRP ACTIVITY” (Novartis AG, priority 2018, published 2023)
